According to ChEMBL document CHEMBL5360532, “Current scenario of quinolone hybrids with potential antibacterial activity against ESKAPE pathogens” (Eur J Med Chem, 2023):
Values after ≈ are worked out from the molar mass of the structure shown. Each block holds one molecule with its values, some of them ahead of it.

How the values were obtained:
Type in all cases: functional
Escherichia coli [1] = experiment: […] activity against Escherichia coli assessed as bacterial growth inhibition by broth dilution assay
Staphylococcus aureus [2] = experiment: Antibacterial activity against Staphylococcus aureus assessed as bacterial growth inhibition by broth microdilution assay
Escherichia coli [3] = experiment: Antibacterial activity against Escherichia coli assessed as bacterial growth inhibition by broth microdilution assay
Enterococcus faecalis = experiment: Antibacterial activity against Enterococcus faecalis assessed as bacterial growth inhibition by broth microdilution assay
Escherichia coli [4] = experiment: Antibacterial activity against fluoroquinolone Escherichia coli assessed as bacterial growth inhibition by broth microdilution assay
Staphylococcus aureus [5] = experiment: Antibacterial activity against methicillin resistant Staphylococcus aureus ATCC 33591 assessed as bacterial growth inhibition measured after 16 to 18 hrs by serial dilution method; settings: time 16-18 hrs
Escherichia coli [6] = experiment: Antibacterial activity against Escherichia coli assessed as bacterial growth inhibition by agar cup diffusion assay
Pseudomonas aeruginosa [7] = experiment: Antibacterial activity against Pseudomonas aeruginosa assessed as bacterial growth inhibition by agar cup diffusion assay
Klebsiella pneumoniae [8] = experiment: Antibacterial activity against Klebsiella pneumoniae assessed as bacterial growth inhibition by agar cup diffusion assay
Staphylococcus aureus [9] = experiment: Antibacterial activity against Staphylococcus aureus assessed as bacterial growth inhibition by agar cup diffusion assay
Staphylococcus aureus [10] = experiment: Potency index, ratio of ciprofloxacin MIC to test compound MIC for antimicrobial activity against Staphylococcus aureus assessed as bacterial growth inhibition by agar cup diffusion assay
Escherichia coli [11] = experiment: Potency index, ratio of ciprofloxacin MIC to test compound MIC for antimicrobial activity against Escherichia coli assessed as bacterial growth inhibition by agar cup diffusion assay
Staphylococcus aureus [12] = experiment: Antibacterial activity against Staphylococcus aureus ATCC 25923 assessed as bacterial growth inhibition measured after 18 hrs by agar dilution assay
Escherichia coli [13] = experiment: Antibacterial activity against Escherichia coli ATCC 25922 assessed as bacterial growth inhibition measured after 18 hrs by agar dilution assay
Klebsiella pneumoniae [14] = experiment: Antibacterial activity against Klebsiella pneumoniae assessed as bacterial growth inhibition by two fold microdilution assay
Escherichia coli [15] = experiment: Antibacterial activity against Escherichia coli ATCC 8739 assessed as bacterial growth inhibition by two fold microdilution assay
Staphylococcus aureus [16] = experiment: Antibacterial activity against Staphylococcus aureus ATCC 6538P assessed as bacterial growth inhibition by two fold microdilution assay
Staphylococcus aureus [17] = experiment: Antibacterial activity against methicillin resistant Staphylococcus aureus assessed as bacterial growth inhibition by agar cup diffusion assay
Staphylococcus aureus [18] = experiment: Antibacterial activity against clinical isolate methicillin resistant Staphylococcus aureus assessed as bacterial growth inhibition by microdilution assay
Staphylococcus aureus [19] = experiment: Antibacterial activity against Staphylococcus aureus ATCC 25923 assessed as bacterial growth inhibition by microdilution assay
Escherichia coli [20] = experiment: Antibacterial activity against Escherichia coli ATCC 10536 assessed as bacterial growth inhibition measured after 24 to 48 hrs by agar dilution assay; settings: time 24-48 hrs
Pseudomonas aeruginosa [21] = experiment: Antibacterial activity against Pseudomonas aeruginosa ATCC 11632 assessed as bacterial growth inhibition measured after 24 to 48 hrs by agar dilution assay; settings: time 24-48 hrs
Pseudomonas aeruginosa [22] = experiment: Antibacterial activity against Pseudomonas aeruginosa assessed as bacterial growth inhibition by broth microdilution assay

Structure (SMILES): Cc1ccc(-c2ccnc(Nc3ccc4c(=O)c(C(=O)O)cn(C5CC5)c4c3)n2)cc1C
- MIC (Staphylococcus aureus [5]): 0.38 mg/L (≈ 0.891 µM)

Structure (SMILES): O=C(O)c1cn(C2CC2)c2cc(N3CCN(Cc4cn(-c5ccccc5)nn4)CC3)c(F)cc2c1=O
- MIC (Staphylococcus aureus [12]): 0.12 mg/L (≈ 0.246 µM)
- MIC (Escherichia coli [13]): 0.12 mg/L (≈ 0.246 µM)

Structure (SMILES): Cc1ccc(-c2ccnc(Nc3ccc4c(=O)c(C(=O)O)cn(C5CC5)c4c3)n2)cc1
- MIC (Staphylococcus aureus [5]): 0.38 mg/L (≈ 0.921 µM)

Structure (SMILES): O=C(O)c1cn(C2CC2)c2cc(N3CCN(C(=O)CCSc4nnnn4-c4ccc(C(F)(F)F)cc4)CC3)c(F)cc2c1=O
- Ratio (Escherichia coli [11]): 2

Structure (SMILES): O=C(O)c1cn(C2CC2)c2cc(N3CCN(C(=O)CN4C(=O)S/C(=C\c5ccccc5)C4=O)CC3)c(F)cc2c1=O
- MIC (Staphylococcus aureus [9]): 0.005 mg/L (≈ 0.00867 µM)
- MIC (Staphylococcus aureus [17]): 0.02 mg/L (≈ 0.0347 µM)

Structure (SMILES): CCCCCOc1ccc(C2C(Cl)C(=O)N2c2cc3[nH]cc(C(=O)O)c(=O)c3cc2F)cc1 (stereo unspecified)
- MIC (Staphylococcus aureus [2]): 0.02 mg/L (≈ 0.0423 µM)
- MIC (Escherichia coli [3]): 0.02 mg/L (≈ 0.0423 µM)
- MIC (Enterococcus faecalis): 0.02 mg/L (≈ 0.0423 µM)
- MIC (Escherichia coli [4]): 0.02 mg/L (≈ 0.0423 µM)

Structure (SMILES): Cc1ccc(-n2cc(CN3CCN(c4cc5c(cc4F)c(=O)c(C(=O)O)cn5C4CC4)CC3)nn2)cc1
- MIC (Staphylococcus aureus [12]): 0.12 mg/L (≈ 0.239 µM)
- MIC (Escherichia coli [13]): 0.12 mg/L (≈ 0.239 µM)

Structure (SMILES): C[C@@H](N)C(=O)N1CCN(c2cc3c(cc2F)c(=O)c(C(=O)N2CCOCC2)cn3C2CC2)CC1
- MIC (Escherichia coli [3]): 0.4 mg/L (≈ 0.848 µM)

Structure (SMILES): CCn1cc(C(=O)O)c(=O)c2cnc(N3CCNCC3)nc21 [PIPEMIDIC ACID]
- MIC (Staphylococcus aureus [12]): 19.5 mg/L (≈ 64.3 µM)
- MIC (Escherichia coli [13]): 19.5 mg/L (≈ 64.3 µM)

Structure (SMILES): COc1ccc(S(=O)(=O)N2CCC[C@@H]3CN(c4c(F)cc5c(=O)c(C(=O)O)cn(C6CC6)c5c4OC)C[C@@H]32)cc1
- MIC (Staphylococcus aureus [18]): < 2.64 mg/L
- MIC (Staphylococcus aureus [19]): < 2.64 mg/L

Structure (SMILES): COc1c(N2CCNC(C)C2)c(F)cc2c(=O)c(C(=O)O)cn(C3CC3)c12 (stereo unspecified) [GATIFLOXACIN]
- MIC (Escherichia coli [20]): 0.25 mg/L (≈ 0.666 µM)
- MIC (Pseudomonas aeruginosa [21]): 0.25 mg/L (≈ 0.666 µM)
- MIC (Staphylococcus aureus [2]): 0.72 mg/L (≈ 1.92 µM)
- MIC (Escherichia coli [3]): 0.66 mg/L (≈ 1.76 µM)
- MIC (Enterococcus faecalis): 0.47 mg/L (≈ 1.25 µM)
- MIC (Escherichia coli [4]): 0.66 mg/L (≈ 1.76 µM)

Structure (SMILES): CCn1cc(C(=O)O)c(=O)c2cc(F)c(N3CCN(Cn4nc(-c5ccco5)oc4=S)CC3)cc21
- MIC (Staphylococcus aureus [2]): ≤ 0.125 mg/L
- MIC (Escherichia coli [3]): ≤ 0.125 mg/L
- MIC (Pseudomonas aeruginosa [22]): ≤ 0.125 mg/L

Structure (SMILES): Cc1ccc(Oc2ccnc(Nc3ccc4c(=O)c(C(=O)O)cn(C5CC5)c4c3)n2)cc1C
- MIC (Staphylococcus aureus [5]): 0.38 mg/L (≈ 0.859 µM)

Structure (SMILES): COc1c(N2C[C@H]3CCCN(S(=O)(=O)c4ccccc4)[C@H]3C2)c(F)cc2c(=O)c(C(=O)O)cn(C3CC3)c12
- MIC (Staphylococcus aureus [18]): < 2.64 mg/L
- MIC (Staphylococcus aureus [19]): < 2.64 mg/L

Structure (SMILES): Cn1c(=O)c(C(=O)CNc2ccc(-c3nc4ccc(Cl)c(Cl)c4s3)cc2)c(O)c2ccccc21
- MIC (Escherichia coli [20]): 0.5 mg/L (≈ 0.98 µM)
- MIC (Pseudomonas aeruginosa [21]): 0.5 mg/L (≈ 0.98 µM)

Structure (SMILES): CCn1cc(C(=O)O)c(=O)c2cnc(N3CCN(Cc4cn(-c5ccc([N+](=O)[O-])cc5)nn4)CC3)nc21
- MIC (Staphylococcus aureus [12]): 0.12 mg/L (≈ 0.237 µM)
- MIC (Escherichia coli [13]): 0.12 mg/L (≈ 0.237 µM)

The next lines start with results.

- MIC (Escherichia coli [1]): 0.98 mg/L (≈ 1.74 µM)
Structure (SMILES): CCCc1nn(CN2CCN(c3ncc4c(=O)c(C(=O)O)cn(CC)c4n3)CC2)c(=S)n1-c1cccc(OC)c1

- MIC (Staphylococcus aureus [2]): 0.66 mg/L (≈ 1.83 µM)
- MIC (Escherichia coli [3]): 0.47 mg/L (≈ 1.3 µM)
- MIC (Enterococcus faecalis): 0.72 mg/L (≈ 1.99 µM)
- MIC (Escherichia coli [4]): 0.47 mg/L (≈ 1.3 µM)
Structure (SMILES): C[C@H]1COc2c(N3CCN(C)CC3)c(F)cc3c(=O)c(C(=O)O)cn1c23 [LEVOFLOXACIN ANHYDROUS]

- MIC (Escherichia coli [1]): 0.98 mg/L (≈ 1.78 µM)
Structure (SMILES): CCc1nn(CN2CCN(c3ncc4c(=O)c(C(=O)O)cn(CC)c4n3)CC2)c(=S)n1-c1cccc(OC)c1

- MIC (Escherichia coli [6]): 1.12 mg/L (≈ 1.92 µM)
- MIC (Pseudomonas aeruginosa [7]): 9.11 mg/L (≈ 15.6 µM)
- MIC (Klebsiella pneumoniae [8]): 1.12 mg/L (≈ 1.92 µM)
- MIC (Staphylococcus aureus [9]): 1.12 mg/L (≈ 1.92 µM)
Structure (SMILES): O=C(CN1CCN(c2cc3c(cc2F)c(=O)c(C(=O)O)cn3C2CC2)CC1)Nc1nnc(-c2ccc(Cl)cc2)s1
- Ratio (Staphylococcus aureus [10]): 4.6
- Ratio (Escherichia coli [11]): 4.6

- MIC (Klebsiella pneumoniae [14]): ≤ 0.125 mg/L
- MIC (Escherichia coli [15]): ≤ 0.125 mg/L
- MIC (Staphylococcus aureus [16]): ≤ 0.125 mg/L
Structure (SMILES): CCn1cc(C(=O)O)c(=O)c2cc(F)c(N3CCN(Cn4nc(-c5ccncc5)n(-c5ccc(OC)cc5)c4=S)CC3)cc21

- MIC (Klebsiella pneumoniae [14]): ≤ 0.125 mg/L
- MIC (Escherichia coli [15]): ≤ 0.125 mg/L
- MIC (Staphylococcus aureus [16]): ≤ 0.125 mg/L
Structure (SMILES): CCn1cc(C(=O)O)c(=O)c2cc(F)c(N3CCN(Cn4nc(-c5ccccc5O)n(-c5ccc(OC)cc5)c4=S)CC3)cc21

- MIC (Escherichia coli [1]): 0.98 mg/L (≈ 1.69 µM)
Structure (SMILES): CCCCc1nn(CN2CCN(c3ncc4c(=O)c(C(=O)O)cn(CC)c4n3)CC2)c(=S)n1-c1cccc(OC)c1

- MIC (Staphylococcus aureus [12]): 0.12 mg/L (≈ 0.252 µM)
- MIC (Escherichia coli [13]): 0.12 mg/L (≈ 0.252 µM)
Structure (SMILES): CCn1cc(C(=O)O)c(=O)c2cc(F)c(N3CCN(Cc4cn(-c5ccccc5)nn4)CC3)cc21

- MIC (Staphylococcus aureus [2]): ≤ 0.125 mg/L
- MIC (Escherichia coli [3]): ≤ 0.125 mg/L
- MIC (Pseudomonas aeruginosa [22]): ≤ 0.125 mg/L
Structure (SMILES): CCn1cc(C(=O)O)c(=O)c2cc(F)c(N3CCN(Cn4nc(-c5cnccn5)oc4=S)CC3)cc21

- MIC (Staphylococcus aureus [2]): ≤ 0.125 mg/L
- MIC (Escherichia coli [3]): ≤ 0.125 mg/L
- MIC (Pseudomonas aeruginosa [22]): ≤ 0.125 mg/L
Structure (SMILES): CCn1cc(C(=O)O)c(=O)c2cc(F)c(N3CCN(Cn4nc(-c5cccnc5)oc4=S)CC3)cc21
